Measured values: US10463644B2, “Uses of sesquiterpene lactone compounds and their derivatives in drugs preparation” (ACCENDATECH, priority 2013, dated 2019)

What was measured:
Type in all cases: in vivo
[1] = test system: IL-1β secreted by synoviocyte; experiment: Content of IL-1β in culture supernatant of synoviocyte of RA model rats given test compound; conditions: rat RA model, dose 30 mg/kg.2d, normal control 0.16 ± 0.034, NaCl 0.49 ± 0.136
Excerpt: (§1) Take Compound 1-50 prepared as per the method according to the present invention and employ the method provided in Reference to prepare model, group drugs and prepare culture supernatant of rat synoviocyte.
(§2) Employ the method provided in Reference to investigate the effects of the test compounds on the synoviocyte to secrete TNF-α and PGE2. Employ the method provided in Reference to investigate the effects of the test compounds on the synoviocyte to secrete IL-1β.
(§3) The experimental data of the test compound 1-50 at a dose of 30 mg/kg.2d as well as the normal control and NaCl group are as follows: […]

[2] = test system: PGE2 secreted by synoviocyte; experiment: Content of PGE2 in culture supernatant of synoviocyte of RA model rats given test compound; conditions: rat RA model, dose 30 mg/kg.2d, normal control 8.34 ± 1.29, NaCl 32.44 ± 10.32
Excerpt: as §1, §2, §3

[3] = test system: TNF-α secreted by synoviocyte; experiment: Content of TNF-α in culture supernatant of synoviocyte of RA model rats given test compound; conditions: rat RA model, dose 30 mg/kg.2d, normal control 0.38 ± 0.027, NaCl 0.74 ± 0.098
Excerpt: as §1, §2, §3

SMILES	Content of IL-1β in culture supernatant of synoviocyte (x ± s) [1] [ng/mL]	Content of PGE2 in culture supernatant of synoviocyte (x ± s) [2] [ng/mL]	Content of TNF-α in culture supernatant of synoviocyte (x ± s) [3] [ng/mL]	Content of IL-1β in culture supernatant of synoviocyte (x ± s) ([1]; 30 mg/kg) [ng/mL]	Content of PGE2 in culture supernatant of synoviocyte (x ± s) ([2]; 30 mg/kg) [ng/mL]	Content of TNF-α in culture supernatant of synoviocyte (x ± s) ([3]; 30 mg/kg) [ng/mL]
CC1CCN(C[C@@H]2C(=O)O[C@@H]3C4C(CCC45CC5)C4(CC[C@@H]23)CC4)CC1 (stereo partly drawn) [Compound 36]	0.29 ± 0.064	25.64 ± 2.14	0.66 ± 0.045			
C=C1C(=O)OC2C1CCC(C)=C1CCC(C)(OC(=O)CC(C)C)C12 (stereo not drawn) [Compound 7]	0.39 ± 0.058	22.82 ± 2.67	0.56 ± 0.044			
C=C1C(=O)OC2C1CCC(C)=C1CCC(C)(OC(=O)C=C(C)C)C12 (stereo not drawn) [Compound 16]	0.34 ± 0.039	27.61 ± 4.21	0.57 ± 0.073			
CC1=C2CC[C@@](C)(O)[C@@H]2[C@H]2OC(=O)[C@@H](CN(C)C)[C@@H]2CC1 [Compound 22]				0.34 ± 0.038	24.69 ± 4.19	0.61 ± 0.082
C=C1C(=O)OC2C1CCC(C)=C1CCC(C)(OC(=O)CCCCBr)C12 (stereo not drawn) [Compound 12]	0.38 ± 0.069	24.59 ± 2.35	0.66 ± 0.043			
C=C1C(=O)OC2C1CCC(C)=C1CCC(C)(OC(=O)C=CC)C12 (stereo not drawn) [Compound 15]	0.41 ± 0.051	24.39 ± 2.38	0.54 ± 0.045			
CC(O)c1cn(C[C@@H]2C(=O)O[C@H]3[C@H]2CCC2(CC2)[C@@H]2CCC4(CC4)[C@H]32)nn1 (stereo partly drawn) [Compound 45]	0.38 ± 0.039	23.26 ± 3.49	0.49 ± 0.056			
O=C1O[C@H]2[C@@H](CCC3(CC3)[C@@H]3CCC4(CC4)[C@H]23)[C@@H]1Cn1cc(CCCCO)nn1 [Compound 42]	0.36 ± 0.059	22.58 ± 4.21	0.58 ± 0.055			
CN1CCN(CC2C(=O)O[C@@H]3[C@@H]4[C@@H](CCC45CC5)C4(CC[C@@H]23)CC4)CC1 (stereo partly drawn) [Compound 37]	0.31 ± 0.037	27.94 ± 2.69	0.59 ± 0.035			
O=C1O[C@H]2[C@@H](CCC3(CC3)[C@@H]3CCC4(CC4)[C@H]23)[C@@H]1CNCCO [Compound 34]	0.35 ± 0.059	24.61 ± 3.24	0.54 ± 0.067			
C=CCCC(=O)OC1(C)CCC2=C(C)CCC3C(=C)C(=O)OC3C21 (stereo not drawn) [Compound 18]	0.39 ± 0.029	20.62 ± 2.47	0.64 ± 0.072			
COC(=O)c1cn(C[C@@H]2C(=O)O[C@H]3[C@H]2CCC2(CC2)[C@@H]2CCC4(CC4)[C@H]32)nn1 [Compound 44]	0.35 ± 0.069	22.14 ± 2.87	0.54 ± 0.071			
CN(CCO)C[C@@H]1C(=O)O[C@H]2[C@H]1CCC1(CC1)[C@@H]1CCC3(CC3)[C@H]21 [Compound 40]	0.31 ± 0.061	25.34 ± 3.57	0.48 ± 0.078			
C=C1C(=O)OC2C1CCC(C)=C1CCC(C)(OC(=O)CCc3ccccc3)C12 (stereo not drawn) [Compound 20]	0.34 ± 0.056	27.38 ± 1.39	0.58 ± 0.045			
C=C1C(=O)OC2C1CCC(C)=C1CCC(C)(OC(=O)C=Cc3ccccc3)C12 (stereo not drawn) [Compound 17]	0.37 ± 0.065	28.95 ± 3.24	0.66 ± 0.077			
CCCCN(C)C[C@@H]1C(=O)O[C@H]2[C@H]1CCC1(CC1)[C@@H]1CCC3(CC3)[C@H]21 [Compound 41]	0.41 ± 0.054	26.63 ± 1.59	0.45 ± 0.056			
O=C1O[C@H]2[C@@H](CCC3(CC3)[C@@H]3CCC4(CC4)[C@H]23)[C@@H]1Cn1cc(-c2ccccc2)nn1 [Compound 43]	0.43 ± 0.062	24.64 ± 3.95	0.55 ± 0.045			
C#CCCCC(=O)O[C@]1(C)CCC2=C(C)CC[C@H]3C(=C)C(=O)O[C@@H]3[C@H]21 [Compound 19]	0.42 ± 0.091	26.45 ± 5.21	0.62 ± 0.056			
C=C1C(=O)OC2C1CCC(C)=C1CCC(C)(OC(=O)C(Cl)Cl)C12 (stereo not drawn) [Compound 10]	0.42 ± 0.069	25.67 ± 7.12	0.54 ± 0.055			
O=C1O[C@H]2[C@@H](CCC3(CC3)[C@@H]3CCC4(CC4)[C@H]23)[C@@H]1CNCc1ccccc1 [Compound 33]	0.41 ± 0.052	26.64 ± 2.67	0.63 ± 0.054			
COC[C@@H]1C(=O)O[C@H]2[C@H]1CCC1(CC1)[C@@H]1CCC3(CC3)[C@H]21 [Compound 30]	0.38 ± 0.049	25.37 ± 4.21	0.65 ± 0.057			
O=C1O[C@H]2[C@@H](CCC3(CC3)[C@@H]3CCC4(CC4)[C@H]23)[C@@H]1CSc1ccccc1 [Compound 31]	0.39 ± 0.051	24.41 ± 1.65	0.62 ± 0.056			
O=C1O[C@H]2[C@@H](CCC3(CC3)[C@@H]3CCC4(CC4)[C@H]23)[C@@H]1CN1CCCC1 [Compound 39]	0.34 ± 0.095	28.35 ± 2.15	0.52 ± 0.056			
C=C1C(=O)OC2C1CCC(C)=C1CCC(C)(OC(=O)CCl)C12 (stereo not drawn) [Compound 9]	0.45 ± 0.064	27.92 ± 2.67	0.61 ± 0.065			
O=C1O[C@H]2[C@@H](CCC3(CC3)[C@@H]3CCC4(CC4)[C@H]23)[C@@H]1CN1CCOCC1 [Compound 38]	0.35 ± 0.062	19.67 ± 3.14	0.67 ± 0.045			
O=C1O[C@H]2[C@@H](CCC3(CC3)[C@@H]3CCC4(CC4)[C@H]23)[C@@H]1CSCc1ccccc1 [Compound 32]	0.37 ± 0.047	22.75 ± 4.25	0.64 ± 0.044			
C=C1C(=O)OC2C1CCC(C)=C1CCC(C)(OC(=O)C(C)C)C12 (stereo not drawn) [Compound 6]	0.36 ± 0.054	26.75 ± 1.69	0.61 ± 0.072			
C=C1C(=O)OC2C1CCC(C)=C1CCC(C)(OC(=O)CCC)C12 (stereo not drawn) [Compound 4]	0.42 ± 0.064	24.49 ± 2.67	0.56 ± 0.064			
C=C1C(=O)OC2C1CCC(C)=C1CCC(C)(OC(=O)CC)C12 (stereo not drawn) [Compound 3]	0.36 ± 0.039	26.96 ± 1.59	0.55 ± 0.042			
